Measured values as given in patent publication US6265423A, “Aromatic polycyclic retinoid-type derivatives, method for preparing same, and use thereof for making pharmaceutical and cosmetic compositions” (priority 1996, dated 2001).
Entries after “also recorded” stand apart in the source; their conditions may differ. Like-named read-outs stand apart in the source and are kept apart here.

Experiments:
[1] = test system: T-47D human mammary cancer cells; experiment: MTT test, proliferation of T-47D; type: cell-based; details: for activity at 100 µM / activity at 1 µM / activity at 0.01 µM: Homo sapiens, T47D, 72 h, read-out: level of proliferation; for effect on cellular increase, T-47D (in words): MTT test
In short: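 After 24 h seeding, cells in MEM with 5% decomplemented FCS at 37° C were exposed to compound at 10^-8 M, 10^-6 M and 10^-4 M. Viability was assessed by MTT reduction to formazan, dissolved in DMSO. Mean optical density is expressed as % of untreated control (100%), in 6 duplicates.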

[2] = test system: RARα-ERcassette; experiment: Transactivation, chimerical receptor RARα-ERcassette (HeLa); type: cell-based; details: TTNPB 10^-8 M = 100
Excerpt: The HeLa cells are co-transfected by a plasmid which codes for a retinoic receptor in which the C domain of bonding to the DNA is substituted by that of the receptor to RE oestrogens, and a plasmid which places the expression of the luciferase under the control of an ERE (Element of Response to Oestrogens). The expressed chimerical receptors are designated as RARα-ERcassette, RARβ-ERcassette, RARγ-ERcassette and RXRα-ERcassette. The A, B, D, E and F regions of the natural receptor are preserved as well as the transcriptional co-operation between the activation domains AF-1 and AF-2. These transitory transfection experiments follow the method of co-precipitation to calcium phosphate. The HeLa cells are co-transfected by […] of plasmid coding for the chimerical receptor, […] of reporter plasmid and […] of expression vector CMV-β-galactosidase used as an internal control of transfection. 24 hours after the transfection, the cells are incubated for 16 hours with the different effectors.
In this type of chimerical receptor, the C domain of bonding to the DNA of RAR is substituted by that of the receptor to the RE oestrogens. The protein obtained is close to the natural RAR receptor and preserves the transcriptional properties of the AF-1 and AF-2 domains. It modulates the transcription by means of an ERE. This RAR-ERcassette model allows one to observe a transcriptional response to a more physiological ligand.

[3] = test system: ERE-βGlob-Luc, MELN lineage (MCF-7); experiment: Anti-oestrogenic effect, MELN lineage activated by estradiol; type: cell-based, human; details: for anti-oestrogenic effect (in words): estradiol-activated MELN cells; for inhibition: 10^-6 M
In short: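 MCF-7-derived MELN cells stably carry luciferase driven by chicken vitellogenin A2 ERE and βGlobin promoter; stimulated with 10^-9 M estradiol, run in duplicate. Basal activity is set with 1 μM 4-OH-tamoxifen and subtracted. Effect expressed as percentage.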

[4] = test system: AP-1, MTLN lineage (MCF-7); experiment: Anti-AP-1 effect, MTLN lineage activated by TPA; type: cell-based, human; details: for inhibition at 0.01 µM / inhibition at 0.1 µM / inhibition at 1 µM: Homo sapiens; for inhibition at 1 µM: 10^-6 M; for anti-AP-1 effect (in words): TPA-activated MTLN cells
In short: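 MCF-7-derived MTLN cells stably carrying a p(TRE)3-tk-Luc reporter, activated with 10^-7 M TPA, run in duplicate. Luciferase inhibition by compounds given as percentage after subtracting basal cell activity, reported as a range from several experiments.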

[5] = test system: T-47D cells; experiment: Effect on oestrogen-induced proliferation of T-47D cells; type: cell-based, human; details: for activity at 1 µM: 10^-6 M, 100% = E2 10^-9 M, read-out: growth of T-47D cells
[6] = test system: Gal4-RARα; experiment: Transactivation, chimerical receptor Gal4-RARα (transitory transfection of HeLa); type: cell-based; details: 100% = TTNPB 10^-8 M
[7] = Homo sapiens, MCF7, read-out: anti-oestrogenic effect, inhibition
[8] = MCF7, read-out: anti-AP-1 effect, inhibition
[9] = Homo sapiens, MCF7, cells activated by 10^-9 M estradiol
[10] = MCF7, cells activated by 10^-7 M TPA, range of several experiments
[11] = Homo sapiens, T47D, 168 h, 7 days
[12] = Homo sapiens, MCF7, 10^-7 M, cells activated by 10^-9 M estradiol, read-out: anti-oestrogenic effect, inhibition
[13] = MCF7, 10^-7 M, cells activated by 10^-7 M TPA, range of several experiments, read-out: anti-AP-1 effect, inhibition
[14] = Homo sapiens, MCF7, 10^-8 M, cells activated by 10^-9 M estradiol, read-out: anti-oestrogenic effect, inhibition

SMILES	activity at 100 µM ([1]; T-47D, 10^-4 M, control = 100%)	activity at 1 µM ([1]; T-47D, 10^-6 M, control = 100%)	activity at 0.01 µM ([1]; T-47D, 10^-8 M, control = 100%)	effect on cellular increase, T-47D (in words) [1]	RAR-ERcassette RARα transactivation ([2]; 10^-6 M)	RAR-ERcassette RARα transactivation ([2]; 10^-7 M)	RAR-ERcassette RARα transactivation ([2]; 10^-8 M)	GAL4-RAR RARα transactivation ([6]; 10^-6 M)	anti-oestrogenic effect (in words) [3]	inhibition [3, 9]	inhibition at 1 µM [4, 10]	activity at 1 µM [5, 11]	inhibition at 0.1 µM [3, 12]	inhibition at 0.1 µM [4, 13]	anti-AP-1 effect (in words) [4]	also measured
CC(C=C/C=C(C)\C=C\C1=C(C)CCCC1(C)C)=CC(=O)O [CB13407, 9-cis retinoic acid, reference compound]	16.3%	91.7%	122%	stimulates the cellular increase at 10^-6 M and 10^-8 M	348%	187%	60%									RAR-ERcassette RARα transactivation ([2]; 10^-9 M): 7%; inhibition at 0.1 µM [3, 7]: 35%; inhibition at 0.01 µM [4, 8]: 30 to 37%; IC50 ([5]; Homo sapiens, T47D, 168 h, read-out: anti-proliferation effect, T-47D IC50): 25.1 ± 1.4 nM
CC1=C(/C=C/C(C)=C/C=C/C(C)=C/C(=O)O)C(C)(C)CCC1 [CB16178, all-trans retinoic acid, reference compound]	1.8%	52.6%	77.2%	inhibit the cellular increase of the two mammary lineages at the concentrations tested	443%	249%	127%	108%	reduces the cellular growth and the expression of oestrogen-dependent genes							GAL4-RAR RARα transactivation ([6]; 10^-7 M): 102%; GAL4-RAR RARα transactivation ([6]; 10^-8 M): 82%; RAR-ERcassette RARα transactivation ([2]; 10^-9 M): 65%; inhibition at 0.1 µM [3, 7]: 35%; inhibition at 0.01 µM [4, 8]: 22 to 33%; inhibition at 0.1 µM [4, 8]: 28 to 44%
C/C(=C/c1ccc2c(c1)C(C)(C)CCC2(C)C)c1ccc(C(=O)O)nc1 [CB16279, (Z) 5-[1-(5,6,7,8-tetrahydro-5,5,8,8-tetramethyl-2-naphthalenyl)-2-propenyl]pyridinyl-2-carboxylic acid]					60%	6%		33%	permit a transrepression of a controlled gene by an ERE	32%	23 to 26%	84%				
C/C(=C/c1ccc2c(c1)C(C)(C)CCC2(C)C)c1ccc(C(=O)O)cc1 [CB28628, reference compound]	4%	59.3%	93.2%		179%	95%	35%			29 to 41%	58%	33%	31%	40%	exhibits a strong anti-AP-1 effect on the MCF-7 cells	GAL4-RAR RARα transactivation ([6]; 10^-7 M): 103%; inhibition of growth (of the order of) ([5]; estradiol 10^-9 M, 7 days): ~70%
CC1(C)CCC(C)(C)c2cc(/C=C(\c3ccc(C(=O)O)cc3)C(F)(F)F)ccc21 [CB36493, (E) 4-[1-trifluoromethyl-2-(5,6,7,8-tetrahydro-5,5,8,8-tetramethyl-2-naphthalenyl)-1-ethenyl]benzoic acid]	21.4%	116%	134%		91%	15%	1%	38%	permit a transrepression of a controlled gene by an ERE	17 to 32%	38 to 46%	68 to 78%	0%	26%	exert an inhibitor effect comparable to that of the effect of CB28628	
C/C(=C/c1ccc2c(c1)C(C)(C)CCC2(C)C)c1ccc(C(=O)O)cn1 [CB38416, (Z) 2-[1-(5,6,7,8-tetrahydro-5,5,8,8-tetramethyl-2-naphthalenyl)-2-propenyl]pyridinyl-5-carboxylic acid]	42.5%	82.6%	119%		65%	7%	0%	58%	permit a transrepression of a controlled gene by an ERE	19%	21 to 25%	50 to 60%	0%	7 to 14%		
C/C(=C\c1cc2c(cc1C)C(C)(C)CCC2(C)C)c1ccc(C(=O)O)cc1 [CB71802]	14.3%	113%	132%							32 to 48%			37%			inhibition at 0.01 µM [3, 14]: 5%; inhibition at 1 µM ([5]; Homo sapiens, T47D, 168 h, 1 μM (10^-6 M), 7 days, estradiol 10^-9 M, read-out: percentage inhibition of growth, T-47D): 72%
C/C(=C\c1ccc2c(c1)C(C)(C)CCC2(C)C)c1ccc(C(=O)Nc2nnn[nH]2)cc1 [CB73364]	0%	53%	62%	inhibits the increase of the T-47D cells	74%					20 to 41%			24%			inhibition at 0.01 µM [3, 14]: 13%; effect on oestrogen-induced growth, T-47D (in words) ([5]; estradiol 10^-9 M): exerts an effect comparable to TTNPB
CC1(C)CCC(C)(C)c2cc(/C=C(\c3ccc(-c4nnn[nH]4)cc3)C(F)(F)F)ccc21 [CB77402, (E) 5-[4-[1-trifluoromethyl-2-(5,6,7,8-tetrahydro-5,5,8,8-tetramethyl-2-naphthalenyl)-1-ethenyl]phenyl]-1H-tetrazole]	15.4%	118%	128%		8%	1%	0%	6%	inactive	0%	30 to 33%			21 to 23%	anti-AP-1 molecules through RXR; also recorded: additive nature of the anti-AP-1 inhibitor effect	
Cc1cc2c(cc1C(=O)c1ccc(C(=O)O)cc1)C(C)(C)CCC2(C)C [LGD-CB14499, reference compound]					42%	12%	4%	17%	inactive						causes an inhibition of the AP-1 route	GAL4-RAR RARα transactivation ([6]; 10^-7 M): 4%; GAL4-RAR RARα transactivation ([6]; 10^-8 M): 1%; activity at 0.01 µM [1]: 88.2%; activity at 1 µM [1]: 82.7%; activity at 100 µM [1]: 1.3%; inhibition at 0.1 µM [3, 7]: 0%; inhibition at 1 µM [3, 7]: 0%; inhibition at 0.1 µM [4, 8]: 17 to 30%
C/C(=C\c1ccc(C(=O)O)cc1)c1ccc2c(c1)C(C)(C)CCC2(C)C [TTNPB, reference compound]	3.5%	61.7%	58.5%	inhibit the cellular increase of the two mammary lineages at the concentrations tested												inhibition at 0.01 µM [3, 7]: 30 to 41%; anti-oestrogenic effect, inhibition (of the order of) ([3]; MELN, estradiol 10^-9 M): ~40%; inhibition at 0.01 µM [4, 8]: 26 to 53%; inhibition at 0.1 µM [4, 8]: 29 to 54%; effect on oestrogen-induced growth, T-47D (in words) ([5]; estradiol 10^-9 M): stronger inhibiting effect than the natural ligands (all-trans RA and 9-cis RA) and than LGD1069
